Assay results published in ChEMBL document CHEMBL3769402, “Discovery of novel N,N-3-phenyl-3-benzylaminopropionanilides as potent inhibitors of cholesteryl ester transfer protein in vivo” (Bioorg Med Chem, 2016).
pIC50: −log10 of the molar value.

Key:
[1] = target: T1, Cholesteryl ester transfer protein (Homo sapiens, UniProt P11597); test: Inhibition of full-length human recombinant CETP expressed in CHO cells by BODIPY-CE dye based fluorescence assay; format: cell-based
T1 sequence (P11597 whole entry): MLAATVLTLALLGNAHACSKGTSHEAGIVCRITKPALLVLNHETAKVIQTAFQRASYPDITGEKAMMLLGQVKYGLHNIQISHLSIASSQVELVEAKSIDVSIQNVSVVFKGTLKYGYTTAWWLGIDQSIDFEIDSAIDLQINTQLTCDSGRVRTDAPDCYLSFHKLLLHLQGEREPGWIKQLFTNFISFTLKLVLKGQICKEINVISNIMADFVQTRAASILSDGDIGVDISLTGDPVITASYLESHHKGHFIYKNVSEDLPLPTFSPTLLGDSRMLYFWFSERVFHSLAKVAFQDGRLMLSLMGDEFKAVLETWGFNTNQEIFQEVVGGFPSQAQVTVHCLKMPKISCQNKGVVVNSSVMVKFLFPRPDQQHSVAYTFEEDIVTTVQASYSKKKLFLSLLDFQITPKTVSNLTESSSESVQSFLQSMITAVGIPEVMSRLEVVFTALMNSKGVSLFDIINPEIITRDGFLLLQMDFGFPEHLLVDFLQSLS

Syrian golden hamster [2] = test: Toxicity in golden syrian hamster assessed as mortality at 20 to 100 mg/kg/day, po for 4 weeks; format: organism-based, Mesocricetus auratus; settings: in vivo, 672 h
Syrian golden hamster [3] = test: Increase in HDL-cholesterol level in high cholesterol/lipid diet fed golden syrian hamster at 100 mg/kg/day, po for 4 weeks; format: functional, Mesocricetus auratus
CYP450 [4] = test: Drug metabolism in KM rat liver microsomes assessed as CYP450 mediated compound oxidation at 100 uM after 17.1 min by LC-MS/MS analysis in presence of NADPH; format: ADME; settings: read-out: Drug metabolism
Syrian golden hamster [5] = test: Decrease in LDL-cholesterol level in high cholesterol/lipid diet fed golden syrian hamster at 20 mg/kg/day, po for 4 weeks; format: functional; settings: Mesocricetus auratus, 672 h
Syrian golden hamster [6] = test: Increase in HDL-cholesterol level in high cholesterol/lipid diet fed po dosed golden syrian hamster administered daily for 4 weeks; format: functional, organism-based; settings: Mesocricetus auratus
Syrian golden hamster [7] = test: Decrease in LDL-cholesterol level in high cholesterol/lipid diet fed golden syrian hamster at 50 mg/kg/day, po for 4 weeks; format: functional; settings: Mesocricetus auratus, 672 h
Syrian golden hamster [8] = test: Increase in HDL-cholesterol level in high cholesterol/lipid diet fed golden syrian hamster at 20 mg/kg/day, po for 4 weeks; format: functional, Mesocricetus auratus
Syrian golden hamster [9] = test: Increase in HDL-cholesterol level in high cholesterol/lipid diet fed golden syrian hamster at 50 mg/kg/day, po for 4 weeks; format: functional, Mesocricetus auratus
CYP450 [10] = test: Drug metabolism in KM rat liver microsomes assessed as CYP450 mediated compound reduction at 100 uM after 17.1 min by LC-MS/MS analysis in presence of NADPH; format: ADME; settings: read-out: Drug metabolism
Syrian golden hamster [11] = test: Decrease in LDL-cholesterol level in high cholesterol/lipid diet fed po dosed golden syrian hamster administered daily for 4 weeks; format: functional, organism-based; settings: Mesocricetus auratus
Syrian golden hamster [12] = test: Decrease in LDL-cholesterol level in high cholesterol/lipid diet fed golden syrian hamster at 100 mg/kg/day, po for 4 weeks; format: functional; settings: Mesocricetus auratus, 672 h

Row | pIC50 [1] | Structure (SMILES) | also measured
1 | 6.16 | CCOC(=O)c1ccc(N2CCN(C(=O)CCN(Cc3ccc(F)cc3)c3cccc(Oc4ccccc4)c3)CC2)cc1 | 
2 | < 4.30 | COc1ccc(N2CCN(C(=O)CCN(Cc3ccc(F)cc3)c3ccc(Oc4ccccc4)cc3)CC2)cc1 | 
3 | 5.17 | CCOC(=O)c1ccc(N2CCN(C(=O)CCN(Cc3ccc(F)cc3)c3ccc(Oc4ccccc4)cc3)CC2)cc1 | 
4 | 5.31 | COc1ccc(N2CCN(C(=O)CCN(Cc3ccc(F)cc3)c3ccc(Cl)c(Cl)c3)CC2)cc1 | 
5 | 5.64 | CCOC(=O)c1ccc(NC(=O)CCN(c2cc(Cl)cc(-c3ccccc3)c2)S(=O)(=O)c2ccc(F)cc2)cc1 | 
6 | 4.91 | CCOC(=O)c1ccc(N2CCN(C(=O)CCN(Cc3ccc(F)cc3)c3ccc(Cl)c(Cl)c3)CC2)cc1 | 
7 | 5.04 | O=C(CCN(Cc1ccc(F)cc1)c1ccc(Cl)c(Cl)c1)Nc1ccc(C(=O)O)cc1 | 
8 | 5.47 | CCOC(=O)c1ccc(NC(=O)CCN(Cc2ccc(F)cc2)c2cc(Cl)cc(-c3ccccc3)c2)cc1 | 
9 | 5.27 | CCOC(=O)c1ccc(NC(=O)CCN(Cc2cc(C(F)(F)F)cc(C(F)(F)F)c2)c2ccc(Cl)c(Cl)c2)cc1 | 

The next lines start with the molecule.

Row | Structure (SMILES) | pIC50 [1] | also measured
10 | CCOC(=O)c1ccc(N2CCN(C(=O)CCN(Cc3ccc(F)cc3)c3ccc(Cl)c(-c4ccccc4)c3)CC2)cc1 | 5.54 | 
11 | CCOC(=O)c1ccc(NC(=O)CCN(Cc2ccc(F)cc2)c2ccc(-c3ccccc3)cc2)cc1 | 4.78 | 
12 | CCOC(=O)c1ccc(N2CCN(C(=O)CCN(Cc3ccc(C(F)(F)F)cc3)c3ccc(Cl)c(Cl)c3)CC2)cc1 | 4.74 | 
13 | CCOC(=O)c1ccc(NC(=O)CCN(c2cccc(Oc3ccccc3)c2)S(=O)(=O)c2ccc(F)cc2)cc1 | 6.82 | Activity (Syrian golden hamster [2]): Non-toxic; Activity (Syrian golden hamster [3]): 48.2%; metabolised at 0.285 h, 100 µM (CYP450 [4]): 36%; inhibition in vivo at 20 mg/kg/day (Syrian golden hamster [5]): 19.3%; Activity (Syrian golden hamster [6]): Dose-dependent effect; inhibition in vivo at 50 mg/kg/day (Syrian golden hamster [7]): 36.2%; Activity (Syrian golden hamster [8]): 16.2%; Activity (Syrian golden hamster [9]): 34.7%; metabolised at 0.285 h, 100 µM (CYP450 [10]): 36%; inhibition (Syrian golden hamster [11]): Dose-dependent effect; inhibition in vivo at 100 mg/kg/day (Syrian golden hamster [12]): 45.8%
14 | CCOC(=O)c1ccc(NC(=O)CCN(Cc2ccc(F)cc2)c2cccc(Oc3ccccc3)c2)cc1 | 6.62 | 
15 | CCOC(=O)c1ccc(NC(=O)CCN(c2ccc(Cl)c(-c3ccccc3)c2)S(=O)(=O)c2ccc(F)cc2)cc1 | 5.89 | 
16 | CCOC(=O)c1ccc(NC(=O)CCN(Cc2ccc(F)cc2)c2ccc(Cl)c(Cl)c2)cc1 | 5.70 | 
17 | CCOC(=O)c1ccc(NC(=O)CCN(Cc2ccc(C(F)(F)F)cc2)c2ccc(Cl)c(Cl)c2)cc1 | 5.02 | 
18 | CCOC(=O)c1ccc(NC(=O)CCN(Cc2ccc(F)cc2)c2ccc(Cl)c(-c3ccccc3)c2)cc1 | 5.57 | 
